Data as given in patent US10881718B2, “Bifunctional conjugate compositions and associated methods” (priority 2010, dated 2021).
Non-standard residues stand in square brackets, D forms with d. No end group written: not given here. Ahx = NCCCCCC(=O)O

Columns and labels:
[1] = set-up: species or system mice; details: mouse, in vivo, sc
Method: In Vivo Imaging. In vivo imaging was completed using the Maestro Imaging Suite. Animals were anesthetized using an isoflurane vaporizer and IR-820 labeled SAgA was injected s.c. at the base of the neck. After injection images were taken of the animal's top, left, bottom, and right side by rotating the animal in the exposure pane. The animal was imaged at defined time points over a 24 hour period to track the drainage and clearance of the SAgA from the injection site.

TNF-α = assay: Plasma cytokine analysis (ELISA) in EAE mice: TNF-α; format: in vivo, SJL/J mice; details: day 6; PBS 1.8 pg/mL
Method: (§2) Blood samples were taken from each mouse via mandibular bleeds (˜100 uL) on days 0, 6, 12, 18, 25. To ensure there was enough sample to perform ELISA cytokine testing blood from, two mice within the same group was pooled at each time point for a total of four samples per group. Samples were collected in heparin-containing tubes and centrifuged to separate red blood cells. Plasma was collected and sent for cytokine analysis to the Cytokine Core Laboratory at the University of Maryland. The cytokines analyzed were IL-2, IL-4, IL-10, IL-17, TNF-α, and TGF-β.

[2] = test system: EAE model induced in SJL/J mice; assay: Suppression of EAE by SAgAs: cell adhesion target and size (Example 2); format: in vivo; details: PLP conc. 100 nMol as printed in Table 11
Method: (§1) Induction of EAE and Therapeutic Study.
Four-6 week-old SJL/J female mice were immunized subcutaneously (s.c) with […] of PLP139-151 in a 0.2 mL emulsion composed of equal volumes of complete Freund's adjuvant (CFA) containing killed Mycobacterium tuberculosis strain H37RA (final concentration of 4 mg/mL; Difco) and phosphate-buffered saline (PBS) containing PLP. The PLP139-151/CFA emulsion was administered to regions above the shoulders and the flanks (total of four sites; 50 μL at each injection site). Additionally, 200 ng/100 μL of pertussis toxin (List Biological Laboratories Inc.) was injected intraperitoneally (i.p.) on the day of immunization (day 0) and 2 days post-immunization. […] One hundred μL of each vehicle was injected for all samples and controls. […] Body weight was also measured daily.
Statistical differences were determined by comparing treated groups to the negative control (PBS) for clinical disease score and body weight. […] For individual clinical day scores and cytokine measurements T test was employed. All analyses were performed using GraphPad Software (GraphPad Software Inc.).
Efficacy of SAgAs was evaluated in the EAE model induced in SJL/J mice. The study design is outlined in Table 11 below. Typically disease onset occurs at approximately day 8 and progresses to remission around day 20. […]

[3] = test system: EAE model induced in SJL/J mice; assay: Suppression of EAE by SAgAs and NP-Arrays (Example 1); format: in vivo; details: PLP conc. 100 nMol (100* for LABL-only arrays); s.c. days 4, 7, 10
Method: as §1
SJL/J (H-2s) female mice, 4-6 weeks old, were purchased from The Jackson Laboratory and housed under specified, pathogen-free conditions at The University of Kansas. All protocols involving live mice were approved by the Institutional Animal Care and Use Committee. Mice were immunized subcutaneously (s.c) with […] of PLP139-151 in a 0.2 mL emulsion composed of equal volumes of phosphate-buffered saline (PBS) and complete Freund's adjuvant (CFA) containing killed Mycobacterium tuberculosis strain H37RA (final concentration of 4 mg/mL; Difco). The PLP139-151/CFA was administered to regions above the shoulders and the flanks (total of four sites; 50 μL at each injection site). In addition, 200 ng/100 μL of pertussis toxin (List Biological Laboratories Inc.) was injected intraperitoneally (i.p.) on the day of immunization (day 0) and 2 days post-immunization. The mice received s.c. injections of each sample, equivalent to 100 nMol PLP/100 μL, on days 4, 7, 10. All NP samples were sonicated to disperse NPs before injection. For HA samples and controls, 100 μL of each vehicle was injected. […] Body weight was also measured daily.
Statistical differences were determined by comparing treated groups to the negative control (PBS) for clinical disease score and body weight. […]
The SAgAs and NP-Arrays were evaluated in an EAE model induced in SJL/J mice. […]

IFN-γ = assay: Plasma cytokine analysis (ELISA) in EAE mice: IFN-γ; format: in vivo, SJL/J mice
Method: as §2

IL-17 = assay: Plasma cytokine analysis (ELISA) in EAE mice: IL-17; format: in vivo, SJL/J mice
Method: as §2

time of drainage/clearance of IR820-labeled material from the injection site [1] [min]	Substance	plasma TNF-α peak concentration (TNF-α) [pg/mL]	Clinical Significance vs PBS: % Weight loss [2]	Clinical Significance vs PBS: Score ([2]; s.c. days 4, 7, 10)	Clinical Data Significance compared to PBS: % Weight loss [3]	Clinical Data Significance compared to PBS: Score [3]	reduction in peak expression of IFN-γ compared to PBS controls (IFN-γ; Day 6) [%]	average plasma concentration of IFN-γ (IFN-γ; day 6, PBS 72 pg/mL) [pg/mL]	plasma IL-17 concentration (IL-17; day 6, PBS 23 pg/mL) [pg/mL]	plasma IL-17 concentration (IL-17; day 12) [pg/mL]
500	Hyaluronic acid [70 kDa HA]									
	HSLGKWLGHPDKF-AcGAcGAc-ITDGEATDSG (HSLGKWLGHPDKF[Ahx]G[Ahx]G[Ahx]ITDGEATDSG) [PLP-BPI]	3.1	p < 0.05, Days 16	p < 0.05, Days 14 & 17	Days 12-16, 18-22, p < 0.01	Day 12, p < 0.001	~40	31	40	31
≤ 1440	Hyaluronic acid [HA]									
